Experimental data as given in US20260327211A1, “MODULATORS OF A POTASSIUM CHANNEL AND OF TRPV1 CHANNEL AND USES THEREOF” (Bsense Bio Therapeutics Ltd., priority 2023, published 2026).
Read-outs that look alike come from different tables or passages of the source.

Tests used:
CYP3A4 = assay: CYP inhibition / time-dependent inhibition, CYP3A4_Midazolam; type: in vitro ADME, human; details: role: inhibitor; substrate midazolam 2.0 μM; CYP TDI ratio
Experimental: The time-dependent inactivation potency of the test compound to CYP enzymatic activities was assessed by the pre-incubation of the human liver microsomes with the test compound in the presence and absence of NADPH, followed by the incubation with the discrete marker substrates, as follows.
Pre-incubation with human liver microsomes (HLMs): The TDI inactivation potency on CYP enzymatic activities was evaluated through pre-incubation with HLMs (Corning). A liver microsome mixture at a concentration of 0.1 mg/mL, and the test compound at 8 different concentrations (0, 0.05, 0.165, 0.5, 1.65, 5.0, 16.5, or 50.0 μM) was warmed at 37° C. for 10 minutes. Concurrently, a set of known time-dependent inactivators was also prepared in duplicate for comparison. Following this, NADPH (1.0 mM) was added to one group (Group 1), and an equal volume of potassium phosphate buffer to the second group (Group 2), marking the beginning of a 30-minute pre-incubation at 37° C.
Incubation: After pre-incubation, the marker substrate, or marker substrate plus NADPH was added to the mixture, thereby initiating the incubation. The duration of the incubation was dependent on the type of CYP isoform being evaluated. For example, with the CYP3A isoform, the mixture was incubated over 3 minutes utilizing midazolam as the marker substrate (2.0 μM), verapamil as the standard inactivator (3.5 μM).
Termination of Reaction: Following the incubation, ice-cooled acetonitrile containing the internal standard (IS) was added to halt the reactions. Metabolites generated from the marker substrates were then measured via LC-MS/MS, assessed based on peak area ratios of the analyte to IS.

Rat pharmacokinetics = type: in vivo; details: rat, plasma
Experimental: The pharmacokinetic (PK) properties of test compound following single intravenous (IV) bolus and oral gavage (PO) administration in male Sprague-Dawley (SD) rats were determined in this study.
Test compound administration: Six male Sprague Dawley (SD) rats were divided into two designated groups, Group 1 and Group 2, each composed of three rat subjects. Group 1 animals were subjected to a single intravenous bolus administration of the test compound at a dosage of 1 mg/kg. Group 2 animals were administered with the test compound orally in a single dose, at a concentration of 10 mg/kg. Throughout the study, the animals had unhindered access to food. The test compound was administered at a concentration of 0.5 mg/mL and dose volume of 2 mL/kg for Group 1, and at a concentration of 1 mg/mL and dose volume of 10 mL/kg, for Group 2.
Sample extraction and analysis: Plasma samples were systematically collected at varying time points of 0.083 (only for Group 1), 0.25, 0.5, 1, 2, 4-, 6-, 8-, and 24-hours post-dose. LC-MS/MS was used to determine the test compound's concentration within the collected plasma samples. Data reflecting plasma concentration in correlation to time were graphically represented and subjected to a non-compartmental analysis using the Phoenix WinNonlin 6.3 software program. The resulting pharmacokinetic parameters, including Clearance (Cl), Volume of distribution at steady state (Vdss) and initial concentration (C0) for intravenous administration; peak concentration (Cmax), time of peak concentration (Tmax), and bioavailability (% F) for extravascular administration; and half-life (T1/2), Area Under Curve from time zero to time t (AUC(0-t)), Area Under Curve from time zero to infinity (AUC(0-inf)), Mean Residence Time from time zero to time t (MRT(0-t)), Mean Residence Time from time zero to infinity (MRT(0-inf)) for all routes, were systematically calculated.

[1] = Log D, 1-octanol/buffer shake flask; type: physicochemical; details: pH 7.4
Experimental: The Log D assay was a miniaturized 1-octanol/buffer shake flask method followed by LC/MS/MS analysis, as follows.
The test compounds or control compounds Nadolol, Chlorpromazine Hydrochloride and Propranolol Hydrochloride were dissolved in 100% DMSO to obtain 10 mM solutions, which were transferred to 96-well polypropylene cluster tubes; 2 μL/well. 1-octanol saturated with 0.1 M phosphate buffer (149 μL/well) and 0.1 M phosphate buffer saturated with 1-octanol (149 μL/well) were added to the tubes, respectively, and each tube was vigorously mixed for 2 minutes and then shaked at a speed of 800 rpm at room temperature for 1 hour, followed by centrifugation at 4000 rpm for 5 minutes at room temperature. Thereafter, for the test compounds and the Chlorpromazine Hydrochloride and Propranolol Hydrochloride, the sample of the buffer layer was diluted by a factor of 50-fold and the sample of 1-octanol layer was diluted by a factor of 2000-fold with internal standard (IS) solution. For Nadolol, the sample of the buffer layer was diluted by a factor of 1000-fold and the sample of 1-octanol layer was diluted by a factor of 400-fold with internal standard (IS) solution. The samples were analyzed using a triple quadrupole mass spectrometer. Peak areas were corrected by dilution factors and embedded internal standard, and the ratio of the corrected peak areas was used to calculate the Log D value. The Log D value for each compound will be calculated by the following equation: […]

[2] = Metabolite identification (Met-ID), human hepatocytes; type: in vitro ADME; details: human hepatocytes
Experimental: Cell culture and incubation: Cryopreserved hepatocyte cells, from human and rat sources, were purchased from commercial sources or in-house production, and were cultured in Williams' Medium E supplemented with glutamine and HEPES, in a humidified 5% CO2 incubator at 37° C., to a cell density of […]. Then, solutions of test compounds at a concentration of 10 μM, or 7-Ethoxycoumarin, as a positive control, at a concentration of 30 μM, in Eagle's Minimum Essential Medium, Catalog No. 30-2003 (ATCC) supplemented with 20% fetal bovine serum, were introduced and the mixture was incubated for 120 minutes, or other specified time points.
The samples were analyzed for metabolites using an LC-MS method developed on […] and PDA systems. Comparative analyses of mass spectra and ion fragmentation between the parent compound and its metabolites were carried out, and metabolic profiling was determined using the mass spectrometric and/or PDA (UV) response. Hypothetical structures of metabolites and their metabolic pathways were proposed.

[3] = Human liver microsome metabolic stability; type: in vitro ADME; details: for HLM T1/2: 1 µM
Text: Liver microsomes which are subcellular particles derived from endoplasmic reticulum of hepatic cells were used for evaluating the tested compounds. These particles are rich in drug metabolizing enzymes, including the cytochrome p-450 family. Liver microsomes are a recommended test system for various in vitro drug metabolism and pharmacokinetics (DMPK) studies. CLint values lower than […] are considered suitable for drug development.
Liver Microsome Metabolic Stability Assay (NADPH): The liver microsome stability assay was evaluated through pre-incubation with HLMs. A liver microsome mixture (pooled from multiple donors) at a concentration of 0.5 mg/mL, and the test compound at a concentration of 1 μM, were warmed in the presence of a NADPH regenerating system (about 1.0 mM) at 37° C. Positive controls, including testosterone (a CYP3A4 substrate), propafenone (a CYP2D6 substrate), and diclofenac (a CYP2C9) substrate, were concurrently incubated with the HLMs, in the presence of the NADPH regenerating system (1.0 mM). Samples were extracted during incubation at multiple intervals: 0, 5, 15, 30, 45 and 60 minutes. To terminate the reactions, the samples were promptly mixed with cooled acetonitrile that included an internal standard (IS). An additional compound was incubated with the HLMs in the absence of the NADPH regeneration system, from which a sample was taken at the 60-minute interval.
The clearance of the test compound in the samples was subsequently analyzed by LC-MS/MS based on the peak area ratios of the analyte to the IS.
The following equation was used to calculate the microsome clearance: […]
Liver weight: 40 grams/kg, 30 grams/kg, 32 grams/kg, 20 grams/kg and 88 grams/kg, for rat, monkey, dog, human and mouse, respectively.

CHO-K1 cells = assay: In vitro micronucleus; type: cell-based; details: Plate 3 without S9, 24 hours
Experimental: The micronucleus assay was performed according to the regulatory guidelines. In brief, CHO-K1 cells were plated at 10000 cells/well in 3 plates and incubated In CHO-K1 growth medium (containing F12K, 10% FBS and 1% PS) overnight.
As a control for the S9 treatment, plate No. 1, cells were treated with cyclophosphamide as a positive control, for 3 hours. For plate No. 2, without S9 treatment, cells were treated with mitomycin C as a positive control, compounds for 3 hours, and for plate No. 3, without S9 treatment, cells were treated with bleomycin sulfate as a positive control continuously for 24 hours.
On the following day, 6 μg/mL of cytochalasin B were added to each well and plates were further incubated overnight. In the day after medium was replaced with a combined 10 μg/mL Hoechst dye solution and 0.5 μM calcein-AM in 100 μL warm DPBS for 30 minutes and the plates were scanned using CQ1 high-content analysis system.

hTRPV1 = target: T1, hTRPV1 (Homo sapiens, UniProt Q8NER1); assay: hTRPV1 dual activity electrophysiology, CHO cells co-expressing hKv7.2/3 and hTRPV1; type: cell-based; details: Kv7.2/3 co-expressed and activated, capsaicin; read-out: Dual hTRPV1 / Dual Expressing CHO, CAP IC50
T1 construct: CDS of NM_080704.4, inserted into the multiple cloning site of pcDNA3.1(+); host or cells: CHO/hKv7.2/3
T1 sequence (Q8NER1 whole entry): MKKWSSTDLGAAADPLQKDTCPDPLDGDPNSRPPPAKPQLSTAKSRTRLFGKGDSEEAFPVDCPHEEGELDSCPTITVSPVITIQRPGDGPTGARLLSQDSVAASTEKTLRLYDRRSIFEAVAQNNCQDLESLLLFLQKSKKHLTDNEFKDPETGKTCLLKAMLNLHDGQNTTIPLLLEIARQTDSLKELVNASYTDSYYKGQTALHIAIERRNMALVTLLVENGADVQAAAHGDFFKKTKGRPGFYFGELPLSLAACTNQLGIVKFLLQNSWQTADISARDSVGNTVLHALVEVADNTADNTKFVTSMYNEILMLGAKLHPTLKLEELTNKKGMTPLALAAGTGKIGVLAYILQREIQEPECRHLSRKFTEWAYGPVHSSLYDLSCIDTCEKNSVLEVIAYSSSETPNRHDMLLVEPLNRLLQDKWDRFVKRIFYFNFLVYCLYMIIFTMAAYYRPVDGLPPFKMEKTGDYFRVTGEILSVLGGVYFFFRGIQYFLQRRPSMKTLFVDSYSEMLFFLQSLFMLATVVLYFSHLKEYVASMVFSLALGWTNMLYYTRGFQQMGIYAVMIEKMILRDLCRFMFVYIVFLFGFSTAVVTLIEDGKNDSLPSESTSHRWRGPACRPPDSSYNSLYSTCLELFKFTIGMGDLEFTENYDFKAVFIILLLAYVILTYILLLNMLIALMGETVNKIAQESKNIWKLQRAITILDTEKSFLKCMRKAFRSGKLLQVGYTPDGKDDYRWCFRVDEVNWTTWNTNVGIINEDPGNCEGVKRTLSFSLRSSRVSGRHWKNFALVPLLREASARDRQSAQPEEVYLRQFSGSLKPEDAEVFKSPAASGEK
Experimental: Cell culture and DNA transfection: CHO/hKv7.2/3 cells were transfected with hTRPV1 DNA constructs (CDS of NM_080704.4, inserted into the multiple cloning site of pcDNA3.1(+) between the Hind III and BamH I restriction site, Genscript). For CHO transfection, 1×10^6 cells were suspended in a reaction mix (Amaxa™ 4D-Nucleofector™-LONZA) containing 5 μg of hTRPV1 DNA and 0.5 μg of GFP DNA (for cells selection) in a cuvette.
The cells were transformed (Amaxa, DT-133 program for CHO transfection with p-3 Kit) and recovered for 10 minutes at RT in the hood. Then cells were re-suspended in a 10 mL antibiotic (Ab)-free medium suspension and were plated on Gelatin or PLL-coated cover glass in different cell densities. On the next morning, the medium was changed to full medium containing the CHO/hKv7.2/3 cell line selection antibiotics.
Extracellular (Bath) solution: The solution was composed of (in mM): NaCl, 140; KCl, 4; CaCl2, 1.8; MgCl2, 1.2; Glucose, 11; HEPES, 5.5. pH was adjusted to 7.3 with NaOH. Osmolarity was adjusted to 310 mOsm with Sucrose.
Intracellular (Pipette) solution: Pipettes were pulled from borosilicate glass (Warner Instrument Corp, USA) with a resistance of 3-7 MΩ and were filled with internal solution composed of (in mM): KCl, 130; MgCl2, 1; K ATP, 5; EGTA, 5; HEPES, 10. pH was adjusted to 7.3 with KOH. Osmolarity was adjusted to 290 mOsm with Sucrose.
A programmable valve-linked pressurized perfusion system was used for local application of compounds nearby the cell recorded in a consistent flow rate of 2-3 mL/minute. Series resistance was corrected and data were sampled at 5 kHz and low pass filtered at 2.4 kHz using MultiClamp 700B amplifier with pCLAMP11 software (Molecular Devices, USA).
At least 48 hours following cell transfection and plating, cells were recorded to assess the TRPV1 dual activity. Membrane potential was held at −90 mV. To measure the inhibitory effects of the tested compounds on hTRPV1 dual activity the following protocol was performed:
Cells were perfused with vehicle-only containing bath solution. After 30 seconds, a single −40 mV 1.5 second step was applied for Kv7.2/3 activation and 30 seconds later capsaicin (1 μM) was applied for 6 seconds to activate the TRPV1.
Cells perfusion was changed to a compound-containing bath solution, and after 2 minutes and 30 seconds of compound application, a single −40 mV 1.5 second step was applied for Kv7.2/3 activation and 30 seconds later capsaicin (1 μM) was applied for 6 seconds to activate the TRPV1.
Cells perfusion was thereafter changed back to vehicle only-containing bath solution. After 30 seconds, a single −40 mV 1.5 step was applied for Kv7.2/3 activation and 30 seconds later capsaicin (1 μM) was applied for 6 seconds to activate the TRPV1 followed by a capsaicin wash out.
The drug current response, when capsaicin was injected following 3 minutes of pre-incubation with the test compound, was divided by the averaged control currents, induced without compound, before compound incubation and following its washout, to evaluate the drug/control response.

Compound | CYP-TDI (midazolam), (−)NADPH/(+)NADPH Ratio CYP3A4 (CYP3A4) | clearance (Rat pharmacokinetics; iv, 1 mg/kg, read-out: PK: Cl) | bioavailability (Rat pharmacokinetics; po, 10 mg/kg, read-out: PK: Oral BA) | logD ([1]; 1-octanol/phosphate buffer, read-out: LogD) | Human Hepatocytes MetID (glutathione conjugation) [2] | HLM and/or Rat PK clearance rates compared to compound 661 [3] | half-life at 1 µM ([3]; human, liver microsomes, human liver microsomes, read-out: HLM T1/2) | Micronucleus response Absolute MEC (CHO-K1 cells) | CC50 (CHO-K1 cells; read-out: Cytotoxicity (%) Absolute EC50) | logD [1] | IC50 (hTRPV1) | HLM T1/2 ([3]; human liver microsomes)
O=C(Cc1nccc(-n2cc(Cl)c3cc(Cl)cc(Cl)c32)n1)NCCO [Compound 767] | 1.20 | 42.5 mL/min/kg | 79.7% | 3.3 | did not indicate the presence of glutathione conjugation and None | improved HLM and/or Rat PK clearance rates compared to compound 661 | 1.03 h |  |  |  |  | 
Bleomycin sulfate [reference compound] |  |  |  |  |  |  |  | >28 µM | 1590 nM |  |  | 
O=C(Cc1cc(-n2cc(Cl)c3cc(Cl)cc(Cl)c32)ncn1)NCCO [Compound 851] |  |  |  |  | did not indicate the presence of glutathione conjugation | improved HLM and/or Rat PK clearance rates compared to compound 661 |  |  |  | 3.38 | 1080 nM | 1.01 h
CC1CN(c2cncc(CC(=O)NC3COCC3O)c2)c2c(Cl)cc(Cl)cc21 (mixture of isomers) [Compound 710] | 1.22 |  |  |  | did not indicate the presence of glutathione conjugation |  |  |  |  | 2.88 |  | 0.168 h
